Test system: E. amylovora 153N
Test: Fire blight on Snow Drift crabapple trees (Example 287)
Format: in vivo, Erwinia amylovora
Details: rate 5 lbs/a (2.27 kg/a), mean of the counts, 100 blossoms per subplot
Method: A study of the bioefficacy of the various agrichemical compositions, including bioactive acid solutions and blends thereof with an antibiotic agrichemical, were evaluated to assess their bioefficacy against fire blight on crabapples. The study was conducted on 5 year old Snow Drift crabapple trees, with each of the compositions being applied to ten trees in two-subplots of five trees, four different times: at 100% bloom—day 1, a second application was made on day 4, a third on day 11 and a final treatment on day 19. The trees were inoculated with E. amylovora 153N at a concentration of 4×10^6 cells per milliliter on day 1, following drying of the treatment, with the inoculation being repeated on day 13. Evaluation for fire blight was completed on 100 blossoms for each of the subplots on day 12, day 19 and day 27. Additionally, the incidence of shoot infection and the length of cankers were evaluated on day 63.
The test compositions were prepared by forming solutions of the bioactive agents. Two different dilutions of the MI2 bioactive were evaluated; the first employing 94.46 ml/gallon (25 ml/l) of water (5 ppm of each metal) and the second 188.9 ml/gallon (50 ml/l) of water (10 ppm of each metal). A streptomycin product (17% concentrated) was diluted at a rate of 0.049 lbs/gallon ([…]) (200 ppm). Finally, copper hydroxide was diluted at a rate of 1 lb/gallon (119.8 g/l). Each of the compositions and blends were spray applied at a rate of 50 gallons (189.3 l) pre acre. The results are presented as the mean of the counts.

For `[Cu+2].[OH-].[OH-]` [copper hydroxide], the “Blossom Incidence” value (Day 12) was 3.1, the “Blossom Incidence” value (Day 19) was 2.2 and the “Blossom Incidence” value (Day 27) was 9.0.
